≈ marks a conversion by molar mass, not a printed value. Where two headings read alike, the source gives them in different places.
Experiments:
[1] = cited from earlier work
[2] = system: M. tuberculosis SIR Ciprofloxacin susceptible 168/22; test: tuberculostatic activity, broth microdilution MIC (Alamar blue); format: cell-based, Mycobacterium tuberculosis; settings: for MIC: Mycobacterium tuberculosis, read-out: Minimal inhibitory concentration; for activity in words: susceptible bacteria
[3] = IAM-HPLC affinity to phospholipids (CHI protocol); format: physicochemical; settings: for log kIAM: 0.045*CHIIAM+0.42; for CHIIAM: IAM column, pH 7.4, ACN gradient
physchem = format: physicochemical; settings: for CHIC18: C18 column, pH 7.4, ACN gradient; for chromatographic logD: pH 7.4
Source text: For HPLC analyses Prominence-1 LC-2030C 3D HPLC system (Shimadzu, Japan) equipped with a DAD detector and controlled by LabSolution system (version 5.90 Shimadzu, Japan) was used. Two different chromatography columns packed with surface-modified silica were utilized in this study: • Octyldecylsilane (C18 Hypersil GOLD™; 50 mm × 4.6 mm; 5.0 µm; Thermo Scientific, USA) • Immobilized artificial membrane (IAM.PC.DD2; 10 × 4.6 mm × 10.0 µm; Regis Technologies; USA).
Both columns were equipped with guard precolumn containing the same silica-modified bed as the main column. All measurements were carried out using the protocol proposed by Valko[19] and co-workers and adopted in our laboratory. Briefly, methods developed by Valko offered the determination of Chromatographic Hydrophobicity Index (CHI) indices using one gradient elution experiment. Ammonium acetate buffer (50 mM, pH 7.4) and acetonitrile (ACN) were used as the mobile phase at a 1.5 mL/min flow rate. The gradient range varies depending on the column type: • For C18 starting from 2 to 98% ACN in 5.25 min. The maximum concentration of ACN was applied for 1.75 min. • For IAM starting from 0 to 85% ACN in 5.25 min. The maximum concentration of ACN was used for 0.5 min.
During the chromatographic separation, the temperature was stable at 30 °C. […] The injected volume was 10 μL, whereas the concentration of solutes was at level 100 μg/mL. All studied compounds were dissolved in DMSO. Each chromatographic experiments run in triplicate. […] Retention times for studied molecules and reference standards are collected in supplementary materials, Tables S1, S2 and S3, respectively.
Next, the CHIC18 values were converted into lipophilicity indices CHI log D using Eq. […]

M. tuberculosis H37Rv [4] = test: tuberculostatic activity, broth microdilution MIC (Alamar blue); format: cell-based, Mycobacterium tuberculosis; settings: for MIC: Mycobacterium tuberculosis, 504 h, M. tuberculosis H37Rv, read-out: Minimal inhibitory concentration; for activity in words: toward standard and susceptible strains
[5] = cited from earlier work; remark: listed apart in the source
[6] = system: Mycobacterium tuberculosis strains (H37Rv, 22/22, 168/22); test: synergism-antagonism evaluation, summary over all strains; format: cell-based
[7] = system: human colon cancer cells (HCT-116); settings: cited from earlier work
[8] = system: human immortal keratinocyte cell line (HaCaT); settings: cited from earlier work
M. tuberculosis H37Rv [9] = format: cell-based, Mycobacterium tuberculosis; settings: derivative 6 at 1/2 MIC
[10] = calibration set on the C18 column, literature CHI index, Table S2 ref 19
[11] = 21 days 37 °C, Middlebrook 7H9 + OADC
[12] = calibration set on the IAM column, CHI index, Table S3 ref 19
[13] = determined in an earlier study ref 15

| SMILES | MIC [2] | log kIAM [3] | CHIIAM [3] | CHIC18 (physchem) | chromatographic logD (physchem) | MIC (M. tuberculosis H37Rv [4]; [11]) | also measured |
| --- | --- | --- | --- | --- | --- | --- | --- |
| Cn1c(=O)c2[nH]cnc2n(C)c1=O [Theophylline] | – | – | – | – | – | – | CHIC18 [1, 10]: 18,4 |
| Cc1ccc(C(C)C)c(OCC(=O)N2CCN(c3cc4c(cc3F)c(=O)c(C(=O)O)cn4C3CC3)CC2)c1 [Compound 9] | 256 µg/mL (≈ 491 µM) | 2.38 | 43.58 | 129.41 | 5.33 | 256 µg/mL | activity in words (M. tuberculosis H37Rv [4]): not active |
| CC[C@@H](CO)NCCN[C@@H](CC)CO [Ethambutol, reference compound] | 0.5 µg/mL (≈ 2.45 µM) | – | – | – | – | 0.25 µg/mL | – |
| CCCCCCCC(=O)c1ccccc1 [Octanophenone] | – | – | – | – | – | – | CHIIAM [5, 12]: 49.4 |
| CC(=O)c1ccccc1 [Acetophenone] | – | – | – | – | – | – | CHIC18 [1, 10]: 65,1; CHIIAM [5, 12]: 17.2 |
| Cc1ccc(C(C)C)c(OC(=O)CN2CCN(c3cc4c(cc3F)c(=O)c(C(=O)O)cn4C3CC3)CC2)c1 [Compound 10] | 1 µg/mL (≈ 1.92 µM) | – | 42.88 | 111.26 | 4.37 | 1 µg/mL | – |
| Cc1ccc(C(C)C)c(OC(=O)CCCCN2CCN(c3cc4c(cc3F)c(=O)c(C(=O)O)cn4C3CC3)CC2)c1 [Compound 13] | 2 µg/mL (≈ 3.55 µM) | 2.53 | 46.96 | 117.28 | 4.69 | 2 µg/mL | – |
| CC1CCC(C(C)C)C(OC(=O)CCCCN2CCN(c3cc4c(cc3F)c(=O)c(C(=O)O)cn4C3CC3)CC2)C1 (stereo not drawn) [Compound 5] | 4 µg/mL (≈ 7.02 µM) | 2.62 | 48.95 | 134.85 | 5.61 | 4 µg/mL | – |
| CO[C@H]1/C=C/O[C@@]2(C)Oc3c(C)c(O)c4c(O)c(c(/C=N/N5CCN(C)CC5)c(O)c4c3C2=O)NC(=O)/C(C)=C\C=C\[C@H](C)[C@H](O)[C@@H](C)[C@@H](O)[C@@H](C)[C@H](OC(C)=O)[C@@H]1C [Rifampicin, reference compound] | 64 µg/mL (≈ 77.8 µM) | – | – | – | – | 0.5 µg/mL | activity in words [2]: poor activity |
| Cc1ccc(C(C)C)c(OC(=O)CCCN2CCN(c3cc4c(cc3F)c(=O)c(C(=O)O)cn4C3CC3)CC2)c1 [Compound 12] | 0.5 µg/mL (≈ 0.91 µM) | 2.48 | 45.75 | 115.60 | 4.6 | 0.5 µg/mL | – |
| Cc1ccc(C(C)C)c(OC(=O)CCN2CCN(c3cc4c(cc3F)c(=O)c(C(=O)O)cn4C3CC3)CC2)c1 [Compound 11] | 1 µg/mL (≈ 1.87 µM) | 2.42 | 44.44 | 113.95 | 4.52 | 1 µg/mL | – |
| CC(=O)Nc1ccc(O)cc1 [Paracetamol] | – | – | – | – | – | – | CHIIAM [5, 12]: 2.9 |
| CC1CCC(C(C)C)C(OC(=O)CCN2CCN(c3cc4c(cc3F)c(=O)c(C(=O)O)cn4C3CC3)CC2)C1 (stereo not drawn) [Compound 3] | 2 µg/mL (≈ 3.69 µM) | 2.65 | 49.56 | 129.99 | 5.36 | 2 µg/mL | – |
| CC1CCC(C(C)C)C(OC(=O)CCCN2CCN(c3cc4c(cc3F)c(=O)c(C(=O)O)cn4C3CC3)CC2)C1 (stereo not drawn) [Compound 4] | 0.5 µg/mL (≈ 0.9 µM) | 2.82 | 53.32 | 132.45 | 5.49 | 0.5 µg/mL | – |
| CC1CCC(C(C)C)C(OC(=O)CN2CCN(c3cc4c(cc3F)c(=O)c(C(=O)O)cn4C3CC3)CC2)C1 (stereo not drawn) [Compound 2] | 2 µg/mL (≈ 3.79 µM) | 2.53 | 46.88 | 127.44 | 5.22 | 0.5 µg/mL | – |
| c1ccc2[nH]cnc2c1 [Benzimidazole] | – | – | – | – | – | – | CHIC18 [1, 10]: 34,3 |
| Cc1ccc(C(C)C)c(OC(=O)CCCCCN2CCN(c3cc4c(cc3F)c(=O)c(C(=O)O)cn4C3CC3)CC2)c1 [Compound 14] | 0.5 µg/mL (≈ 0.866 µM) | 2.68 | 50.29 | 121.48 | 4.91 | 0.5 µg/mL | – |

| SMILES | MIC [2] | log kIAM [3] | CHIIAM [3] | CHIC18 (physchem) | chromatographic logD (physchem) | MIC (M. tuberculosis H37Rv [4]; [11]) | also measured |
| --- | --- | --- | --- | --- | --- | --- | --- |
| CC1CCC(C(C)C)C(OC(=O)CCCCCOC(=O)c2cn(C3CC3)c3cc(N4CCN(CCCCCC(=O)OC5CC(C)CCC5C(C)C)CC4)c(F)cc3c2=O)C1 (stereo not drawn) [Compound 8] | 4 µg/mL (≈ 4.78 µM) | 3.02 | 57.85 | 179.66 | 7.97 | 4 µg/mL | – |
| Cc1ccc(C(C)C)c(OC(=O)CCCCCOC(=O)c2cn(C3CC3)c3cc(N4CCN(CCCCCC(=O)Oc5cc(C)ccc5C(C)C)CC4)c(F)cc3c2=O)c1 [Compound 16] | 4 µg/mL (≈ 4.85 µM) | 2.64 | 49.33 | 144.84 | 6.14 | 4 µg/mL | – |
| CCC(=O)c1ccccc1 [Propiophenone] | – | – | – | – | – | – | CHIC18 [1, 10]: 77,5; CHIIAM [5, 12]: 25.9 |
| O=C(O)c1cn(C2CC2)c2cc(N3CCNCC3)c(F)cc2c1=O [Ciprofloxacin, reference compound] | – | – | – | – | – | – | CHIC18 [1, 13]: 35.61; CHIIAM [5, 13]: 19.70; log kIAM [5, 13]: 1.31 |
| CCCC(=O)c1ccccc1 [Butyrophenone] | – | – | – | – | – | – | CHIC18 [1, 10]: 87,5; CHIIAM [5, 12]: 32 |
| [H]/N=C(/N)N[C@H]1[C@H](O)[C@@H](O)[C@H](O[C@@H]2O[C@@H](C)[C@](O)(C=O)[C@H]2O[C@@H]2O[C@@H](CO)[C@H](O)[C@@H](O)[C@@H]2NC)[C@@H](N/C(N)=N\[H])[C@@H]1O [Streptomycin, reference compound] | 64 µg/mL (≈ 110 µM) | – | – | – | – | 0.25 µg/mL | activity in words [2]: poor activity |
| Cc1ccc(C(C)C)c(OC(=O)CCCOC(=O)c2cn(C3CC3)c3cc(N4CCN(CCCC(=O)Oc5cc(C)ccc5C(C)C)CC4)c(F)cc3c2=O)c1 [Compound 15] | 64 µg/mL (≈ 83.3 µM) | 2.47 | 45.54 | 135.98 | 5.67 | 64 µg/mL | activity in words (M. tuberculosis H37Rv [4]): not active |
| CC(C)[C@@H]1CC[C@@H](C)C[C@H]1OC(=O)CCCCCN1CCN(c2cc3c(cc2F)c(=O)c(C(=O)O)cn3C2CC2)CC1 [Compound 6, 1‐cyclopropyl‐6‐fluoro‐7‐{4‐[6‐((1R,2S,5R)‐2‐isopropyl‐5‐methylcyclohexyloxy)‐6‐oxohexyl]piperazin‐1‐yl}‐4‐oxo‐1,4‐dihydroquinoline‐3‐carboxylic acid] | 1 µg/mL (≈ 1.71 µM) | 2.74 | 51.47 | 139.48 | 5.86 | 1 µg/mL | FICI values, derivative 6 with Linezolid [6]: 1.0; interaction type from FICI [6]: indifference (key: synergism (FICI ≤ 0.5); indifference (> 0.5 FICI ≤ 4); antagonism (FICI > 4)); IC50 ([7]; HCT-116, MTT assay ref 10): 29.5 ± 2.1 µM; selectivity index ([7]; HCT-116 versus HaCaT ref 10): 3.4; cytotoxic effect [8]: no cytotoxic effect |
| CC1CCC(C(C)C)C(OC(=O)CCCCOC(=O)c2cn(C3CC3)c3cc(N4CCN(CCCCC(=O)OC5CC(C)CCC5C(C)C)CC4)c(F)cc3c2=O)C1 (stereo not drawn) [Compound 7] | 256 µg/mL (≈ 317 µM) | 2.92 | 55.54 | 170.54 | 7.49 | – | MIC (M. tuberculosis H37Rv [4]; […]): 256 µg/mL (≈ 317 µM); activity in words (M. tuberculosis H37Rv [4]): not active |
| CC1CCC(C(C)C)C(OCC(=O)N2CCN(c3cc4c(cc3F)c(=O)c(C(=O)O)cn4C3CC3)CC2)C1 (stereo not drawn) [Compound 1] | 256 µg/mL (≈ 485 µM) | 2.47 | 45.54 | 112.24 | 4.43 | 32 µg/mL | activity in words (M. tuberculosis H37Rv [4]): not active |
| NNC(=O)c1ccncc1 [Isoniazid, reference compound] | 0.5 µg/mL (≈ 3.65 µM) | – | – | – | – | 0.0625 µg/mL | – |
| CCCCC(=O)c1ccccc1 [Valerophenone] | – | – | – | – | – | – | CHIC18 [1, 10]: 96,2; CHIIAM [5, 12]: 37.3 |
| CC(=O)NC[C@H]1CN(c2ccc(N3CCOCC3)c(F)c2)C(=O)O1 [Linezolid, reference compound] | 0.007 µg/mL (≈ 0.0207 µM) | – | – | – | – | 0.003 µg/mL | MIC for reference drug in the presence of derivative 6 (M. tuberculosis H37Rv [9]): 1.5 ng/mL |
| CCCCCCC(=O)c1ccccc1 [Heptanophenone] | – | – | – | – | – | – | CHIIAM [5, 12]: 45.7 |
| CCCCCC(=O)c1ccccc1 [Hexanophenone] | – | – | – | – | – | – | CHIIAM [5, 12]: 41.8 |
| CC(=O)Nc1ccccc1 [Acetanilidine] | – | – | – | – | – | – | CHIIAM [5, 12]: 11.5 |

— article PMC10539350 (Scientific Reports, 2023)
